The source of these data is ChEMBL document CHEMBL3616364, “Going Out on a Limb: Delineating The Effects of β-Branching, N-Methylation, and Side Chain Size on the Passive Permeability, Solubility, and Flexibility of Sanguinamide A Analogues” (J Med Chem, 2015).

The nature of data set [1]: Permeability of the compound at pH 7.4 at 10 uM after 10 hrs by LC-MS based PAMPA.
The nature of data set [2]: Apparent permeability from apical to basolateral side in human Caco2 cells at 10 uM after 2 hrs by LC-MS/MS analysis. To be noted: Caco-2. On the technique in general: Passage across Caco-2 layers is used to estimate intestinal permeability.
Data set [3] in a line: Retention time of the compound in isocratic acetonitrile/water by HPLC analysis. To be noted: buffer.
Data set [4] in a line: Kinetic solubility of the compound in PBS at pH 7.4.
Data set [5] is described as follows: physchem. As to conditions: PBS.

Structures are written as SMILES. In brackets after ≈: the same amount, converted by molar mass. Starred links: 1 amine or outer side, 2 acyl side, 3 side chain; linkers in the order of their positions; H or OH if unused. Non-standard residues stand in square brackets, D forms with d. Residues, ends and D or L forms follow the SMILES beside them. Ile(ψThz) = CC[C@H](C)[C@H](N[*:1])c1nc(C(=O)[*:2])cs1; LeuThz(4-CO) = CC(C)C[C@H](N[*:1])c1nc(C(=O)[*:2])cs1; ValThz = CC(C)[C@H](N[*:1])c1nc(C(=O)[*:2])cs1; NMeF = CN[C@@H](Cc1ccccc1)C(=O)O; NMeI = CC[C@H](C)[C@H](NC)C(=O)O; Tle = CC(C)(C)[C@H](N)C(=O)O; NMeA = CN[C@@H](C)C(=O)O

For the compound `CC[C@H](C)[C@@H]1NC(=O)[C@@H]2CCCN2C(=O)[C@H](Cc2ccccc2)NC(=O)[C@H](C)NC(=O)c2csc(n2)[C@H]([C@@H](C)CC)NC(=O)[C@@H]2CCCN2C1=O` (cyclo(AFPIP[Ile(ψThz)])), in data set [1], the Papp (in general, a coefficient for how fast a substance crosses the barrier) at 10 h, 10 µM stood at 5.3 ×10⁻⁶ cm/s. Besides, the apparent permeability from apical to basolateral (Papp A→B) (usually the apparent permeability from the apical to the basolateral side of a cell layer) at 2 h, 10 µM in data set [2] stood at 1.3 ×10⁻⁶ cm/s. The compound further showed a Retention_time in data set [3] of 2.77 min. Moreover, in data set [4], the solubility (kinetic) – broadly, solubility judged after dilution from a stock solution rather than from solid – came to 147 µM (≈ 106 µg/mL). For the same compound, the thermodynamic solubility (commonly solubility found after equilibrating the solid with the medium) at 48 h in data set [5] stood at 107 µM (≈ 77.2 µg/mL).

On to `CC[C@H](C)[C@@H]1NC(=O)[C@@H]2CCCN2C(=O)[C@H](Cc2ccccc2)NC(=O)[C@H](C)NC(=O)c2csc(n2)[C@H](CC(C)C)NC(=O)[C@@H]2CCCN2C1=O` (cyclo(AFPIP[LeuThz(4-CO)])), for which, in data set [1], the Papp at 10 h, 10 µM stood at 5.6 ×10⁻⁶ cm/s. The apical-to-basolateral permeability (Papp A→B) at 2 h, 10 µM in data set [2] was found to be 1.3 ×10⁻⁶ cm/s. The compound further yielded a Retention_time in data set [3] of 2.87 min. In data set [4], the solubility (kinetic) was 182 µM (≈ 131 µg/mL). The same compound came in with a thermodynamic solubility at 48 h in data set [5] of 35 µM (≈ 25.3 µg/mL).

For `CC[C@H](C)[C@@H]1NC(=O)[C@@H]2CCCN2C(=O)[C@H](Cc2ccccc2)NC(=O)[C@H](C)NC(=O)c2csc(n2)[C@H](C(C)C)NC(=O)[C@@H]2CCCN2C1=O` (cyclo(AFPIP[ValThz])), the apparent permeability coefficient (Papp) at 10 h, 10 µM in data set [1] was determined as 4.8 ×10⁻⁶ cm/s. In addition, the Papp A→B at 2 h, 10 µM in data set [2] is 3.7 ×10⁻⁶ cm/s. Moreover, the Retention_time in data set [3] is recorded as 2.03 min. The compound also had a solubility (kinetic) in data set [4] of 285 µM (≈ 202 µg/mL). In data set [5], this compound returned a thermodynamic solubility at 48 h of 205 µM (≈ 145 µg/mL).

In data set [1], `CC[C@H](C)[C@@H]1NC(=O)[C@@H]2CCCN2C(=O)[C@H](CC(C)C)NC(=O)[C@@H]2CCCN2C(=O)[C@H](Cc2ccccc2)NC(=O)[C@H](C)NC(=O)c2csc1n2` (cyclo(AFPLP[Ile(ψThz)])) displayed a Papp at 10 h, 10 µM of 5.3 ×10⁻⁶ cm/s. Further, the Papp A→B at 2 h, 10 µM in data set [2] was determined as 0.2 ×10⁻⁶ cm/s. Besides, the Retention_time in data set [3] came to 2.19 min. Besides, the kinetic solubility in data set [4] came out at 133 µM (≈ 96 µg/mL). In data set [5], this compound yielded a solubility (thermodynamic) at 48 h of 122 µM (≈ 88.1 µg/mL).

The compound `CC[C@H](C)[C@@H]1NC(=O)[C@@H]2CCCN2C(=O)[C@H]([C@@H](C)O)NC(=O)[C@@H]2CCCN2C(=O)[C@H](Cc2ccccc2)NC(=O)[C@H](C)NC(=O)c2csc1n2` (cyclo(AFPTP[Ile(ψThz)])) yielded an apparent permeability (Papp) at 10 h, 10 µM in data set [1] of 0.2 ×10⁻⁶ cm/s. In data set [2], the Papp A→B at 2 h, 10 µM was found to be 0.4 ×10⁻⁶ cm/s. In data set [3], this compound had a Retention_time of 1.02 min. This compound displayed a solubility (kinetic) in data set [4] of 285 µM (≈ 202 µg/mL).

`CC[C@H](C)[C@@H]1NC(=O)[C@@H]2CCCN2C(=O)[C@H](C(C)C)NC(=O)[C@@H]2CCCN2C(=O)[C@H](Cc2ccccc2)NC(=O)[C@H](C)NC(=O)c2csc1n2` (cyclo(AFPVP[Ile(ψThz)])) showed a Papp at 10 h, 10 µM in data set [1] of 4.9 ×10⁻⁶ cm/s. For the same compound, the Papp A→B at 2 h, 10 µM in data set [2] came out at 0.3 ×10⁻⁶ cm/s. Moreover, in data set [3], the Retention_time was found to be 1.97 min. Besides, the kinetic solubility in data set [4] came to 182 µM (≈ 129 µg/mL). Moreover, in data set [5], the thermodynamic solubility at 48 h came to 236 µM (≈ 167 µg/mL).

`CC[C@H](C)[C@@H]1NC(=O)[C@@H]2CCCN2C(=O)[C@H]([C@@H](C)CC)N(C)C(=O)[C@@H]2CCCN2C(=O)[C@H](Cc2ccccc2)NC(=O)[C@H](C)NC(=O)c2csc1n2` (cyclo(AFP[NMeI]P[Ile(ψThz)])) had a Papp at 10 h, 10 µM in data set [1] of 1.3 ×10⁻⁶ cm/s. The Papp A→B at 2 h, 10 µM in data set [2] worked out at 0.4 ×10⁻⁶ cm/s. Moreover, the Retention_time in data set [3] is listed as 1.79 min.

`CC[C@H](C)[C@@H]1NC(=O)[C@@H]2CCCN2C(=O)[C@H](Cc2ccccc2)N(C)C(=O)[C@H](C)NC(=O)c2csc(n2)[C@H]([C@@H](C)CC)NC(=O)[C@@H]2CCCN2C1=O` (cyclo(A[NMeF]PIP[Ile(ψThz)])) showed a Papp at 10 h, 10 µM in data set [1] of 11 ×10⁻⁶ cm/s. In data set [2], the Papp A→B at 2 h, 10 µM stood at 7.4 ×10⁻⁶ cm/s. In addition, the Retention_time in data set [3] is given as 3.03 min. The same compound had a kinetic solubility in data set [4] of 105 µM (≈ 77.3 µg/mL). The compound also came in with a solubility (thermodynamic) at 48 h in data set [5] of 172 µM (≈ 127 µg/mL).

On to `CC[C@H](C)[C@@H]1NC(=O)[C@@H]2CCCN2C(=O)[C@H](C(C)C)NC(=O)[C@@H]2CCCN2C(=O)[C@H](Cc2ccccc2)N(C)C(=O)[C@H](C)NC(=O)c2csc1n2` (cyclo(A[NMeF]PVP[Ile(ψThz)])), for which the apparent permeability coefficient (Papp) at 10 h, 10 µM in data set [1] was 9.1 ×10⁻⁶ cm/s. Further, the Papp A→B at 2 h, 10 µM in data set [2] was determined as 6.8 ×10⁻⁶ cm/s. The same compound showed a Retention_time in data set [3] of 2.24 min. Also, the solubility (kinetic) in data set [4] was found to be 133 µM (≈ 96 µg/mL). In addition, in data set [5], the solubility (thermodynamic) at 48 h stood at 296 µM (≈ 214 µg/mL).

`CC[C@H](C)[C@@H]1NC(=O)c2csc(n2)[C@H]([C@@H](C)CC)NC(=O)[C@@H]2CCCN2C(=O)[C@H]([C@@H](C)CC)NC(=O)[C@@H]2CCCN2C(=O)[C@H](Cc2ccccc2)NC1=O` (cyclo(FPIP[Ile(ψThz)]I)) came in with an apparent permeability coefficient (Papp) at 10 h, 10 µM in data set [1] of 6.1 ×10⁻⁶ cm/s. The apical-to-basolateral permeability (Papp A→B) at 2 h, 10 µM in data set [2] was 9.6 ×10⁻⁶ cm/s. Besides, the Retention_time in data set [3] was 7.86 min. The compound further showed a solubility (kinetic) in data set [4] of 39 µM (≈ 29.8 µg/mL). In data set [5], this compound showed a solubility (thermodynamic) at 48 h of 6 µM (≈ 4.58 µg/mL).

In the case of `CC[C@H](C)[C@@H]1NC(=O)[C@@H]2CCCN2C(=O)[C@H](Cc2ccccc2)NC(=O)[C@H](CC(C)C)NC(=O)c2csc(n2)[C@H]([C@@H](C)CC)NC(=O)[C@@H]2CCCN2C1=O` (cyclo(FPIP[Ile(ψThz)]L)), the Papp at 10 h, 10 µM in data set [1] is 4.7 ×10⁻⁶ cm/s. The apparent permeability from apical to basolateral (Papp A→B) at 2 h, 10 µM in data set [2] is 10.9 ×10⁻⁶ cm/s. For the same compound, the Retention_time in data set [3] was 9.13 min. This compound registered a kinetic solubility in data set [4] of 39 µM (≈ 29.8 µg/mL). Moreover, the solubility (thermodynamic) at 48 h in data set [5] is 10 µM (≈ 7.64 µg/mL).

In data set [1], `CC[C@H](C)[C@@H]1NC(=O)[C@@H]2CCCN2C(=O)[C@H](Cc2ccccc2)NC(=O)[C@H](C)N(C)C(=O)c2csc(n2)[C@H]([C@@H](C)CC)NC(=O)[C@@H]2CCCN2C1=O` (cyclo(FPIP[Ile(ψThz)][NMeA])) yielded an apparent permeability (Papp) at 10 h, 10 µM of 0.5 ×10⁻⁶ cm/s. In addition, the Papp A→B at 2 h, 10 µM in data set [2] came to 0.2 ×10⁻⁶ cm/s. The Retention_time in data set [3] stood at 1.48 min. Also, in data set [4], the kinetic solubility stood at 333 µM (≈ 245 µg/mL). Moreover, the solubility (thermodynamic) at 48 h in data set [5] worked out at 801 µM (≈ 589 µg/mL).

With `CC[C@H](C)[C@@H]1NC(=O)[C@@H]2CCCN2C(=O)[C@H](Cc2ccccc2)NC(=O)[C@H](C(C)(C)C)NC(=O)c2csc(n2)[C@H]([C@@H](C)CC)NC(=O)[C@@H]2CCCN2C1=O` (cyclo(FPIP[Ile(ψThz)][Tle])), the Retention_time in data set [3] is given as 8.72 min.

On to `CC(C)[C@@H]1NC(=O)c2csc(n2)[C@H](C(C)C)NC(=O)[C@@H]2CCCN2C(=O)[C@H](C(C)C)NC(=O)[C@@H]2CCCN2C(=O)[C@H](Cc2ccccc2)NC1=O` (cyclo(FPVP[ValThz]V)), for which the apparent permeability (Papp) at 10 h, 10 µM in data set [1] was 4.7 ×10⁻⁶ cm/s. In data set [2], the apparent permeability from apical to basolateral (Papp A→B) at 2 h, 10 µM is 2.2 ×10⁻⁶ cm/s. Besides, the Retention_time in data set [3] worked out at 2.81 min. The compound further showed a kinetic solubility in data set [4] of 105 µM (≈ 75.8 µg/mL). For the same compound, the solubility (thermodynamic) at 48 h in data set [5] was found to be 148 µM (≈ 107 µg/mL).

In data set [1], `CC[C@H](C)[C@@H]1NC(=O)[C@@H]2CCCN2C(=O)[C@H](Cc2ccccc2)N(C)C(=O)[C@H](CC(C)C)NC(=O)c2csc(n2)[C@H]([C@@H](C)CC)NC(=O)[C@@H]2CCCN2C1=O` (cyclo(IP[Ile(ψThz)]L[NMeF]P)) came in with a Papp at 10 h, 10 µM of 17.2 ×10⁻⁶ cm/s. Further, the apparent permeability from apical to basolateral (Papp A→B) at 2 h, 10 µM in data set [2] was 19.3 ×10⁻⁶ cm/s. The Retention_time in data set [3] came to 5.06 min. Also, the solubility (kinetic) in data set [4] was found to be 133 µM (≈ 103 µg/mL). This compound showed a solubility (thermodynamic) at 48 h in data set [5] of 111 µM (≈ 86.4 µg/mL).

In data set [3], `CC[C@H](C)[C@@H]1NC(=O)[C@@H]2CCCN2C(=O)[C@H](Cc2ccccc2)N(C)C(=O)[C@H](C(C)(C)C)NC(=O)c2csc(n2)[C@H]([C@@H](C)CC)NC(=O)[C@@H]2CCCN2C1=O` (cyclo(IP[Ile(ψThz)][Tle][NMeF]P)) returned a Retention_time of 10.94 min.

`CC[C@H](C)[C@@H]1NC(=O)c2csc(n2)[C@H]([C@@H](C)CC)NC(=O)[C@@H]2CCCN2C(=O)[C@H]([C@@H](C)CC)NC(=O)[C@@H]2CCCN2C(=O)[C@H](Cc2ccccc2)N(C)C1=O` (cyclo(I[NMeF]PIP[Ile(ψThz)])): the Papp at 10 h, 10 µM in data set [1] is 1.5 ×10⁻⁶ cm/s. Also, the Papp A→B at 2 h, 10 µM in data set [2] is 21.2 ×10⁻⁶ cm/s. The same compound came in with a Retention_time in data set [3] of 10 min. The solubility (kinetic) in data set [4] came to 21 µM (≈ 16.3 µg/mL). The compound also showed a solubility (thermodynamic) at 48 h in data set [5] of 12 µM (≈ 9.34 µg/mL).
